Patent US9006459B2, “Fluorescent markers and use thereof for labeling specific protein targets” (University of Ottawa, priority 2010, dated 2015)

What was measured:
[1] = Fluorescence enhancement (FE) ratio upon reaction with excess MPA; assay type: physicochemical; details: for FE (fluorescence enhancement ratio): HEPES (pH 7.4)/DMSO 5%, final divided by initial fluorescence intensity
Experimental: (§1) Spectroscopic characterization of fluorogen 5 included absorbance and fluorescence emission maxima as well as the fluorescence enhancement (FE) ratio. The spectroscopic characteristics were evaluated in two solvent systems (DMSO and HEPES (pH 7.4)/5% DMSO). The FE ratio determination was carried out by reacting 5 with excess mercaptopropionic acid (MPA) and then dividing the final fluorescence by the initial fluorescence intensity, at a specific fluorogen concentration.
Determination of Fluorescence Enhancement Ratios
(§2) Absorbance spectra were recorded at 25° C., with a Cary-100 spectrometer. Emission spectra and fluorescence intensity measurements were recorded at 25° C. with a Cary Eclipse fluorometer. Excitation and emission slits were fixed at 5 nm
3-Mercaptopropionic acid (50 eq) was added to a 1 to 4 mM DMSO solution of fluorogen. The resulting mixture was stirred at 25° C., in the dark for 18 hours after which fluorescence intensities of a dilution in HEPES buffer (pH 7.4) were recorded. Final fluorescence intensity was then divided by the initial florescence intensity at the same fluorogen concentration leading to the fluorescence enhancement ratio for the fluorogen.

[2] = Photophysical properties (absorbance/excitation and fluorescence emission maxima, fluorescence intensity); assay type: physicochemical; details: for initial fluorescence intensity: before reaction with MPA
Experimental: as §1, §2

With “8-(2′,6′-di-((4″-(3-methylmaleimido)phenyl)ethynyl))-4,4-difluoro-4-bora-3a,4a-diaza-s-indacene [Fluorogen 17]” the “FE (fluorescence enhancement ratio)” value [1] was 6.4.
In the case of “8-(3′,5′-di-(3-methylmaleimido)-phenyl-4,4-difluoro-4-bora-3a,4a-diaza-s-indacene [Fluorogen 13]”, the “FE (fluorescence enhancement ratio)” value [1] is reported as 3.5, the “λem MPA adduct” value ([2]; di-MPA adduct in HEPES/DMSO 5%) is reported as 514 nm and the “λex MPA adduct” value ([2]; di-MPA adduct in HEPES/DMSO 5%) is reported as 510 nm. It also gave a λem ([2]; fluorogen in HEPES/DMSO 5%) of 514 nm and a λex ([2]; fluorogen in HEPES/DMSO 5%) of 510 nm.
In the case of `CC1=CC(=O)N(c2cc(NS(=O)(=O)c3cccc4c(N(C)C)cccc34)cc(N3C(=O)C=C(C)C3=O)c2)C1=O` [Fluorogen 5, N-Dansyl-3,5-di-(3-methylmaleimido)aniline], the “fluorescence intensity increase upon reaction with MPA” value ([1]; pure DMSO) is reported as “over 300 fold”, the melting point is reported as 230 °C and the initial fluorescence intensity ([2]; aqueous media (HEPES/5% DMSO)) is reported as “at the level of the background noise”. The “λem MPA adduct” value ([2]; di-MPA adduct in DMSO) was 540 nm, the “λex MPA adduct” value ([2]; di-MPA adduct in DMSO) was 350 nm and the “λem MPA adduct” value ([2]; di-MPA adduct in HEPES/DMSO 5%) was 520 nm. The “λex MPA adduct” value ([2]; di-MPA adduct in HEPES/DMSO 5%) was 325 nm, the λem ([2]; fluorogen in DMSO) was 540 nm and the λex ([2]; fluorogen in DMSO) was 345 nm. The λem ([2]; fluorogen in HEPES/DMSO 5%) was 520 nm, the λex ([2]; fluorogen in HEPES/DMSO 5%) was 325 nm and the initial fluorescence intensity ([2]; pure DMSO) was “approximately 2”.
For `COc1ccc2cc(C(=O)NCc3cc(N4C(=O)C=C(C)C4=O)cc(N4C(=O)C=C(C)C4=O)c3)c(=O)oc2c1` [Fluorogen 11, 7-Methoxy-3-(3,5-di-(3-methylmaleimido)benzyl)aminocarbonyl coumarin], the “FE (fluorescence enhancement ratio)” value [1] was 6.4, the “λem MPA adduct” value ([2]; di-MPA adduct in HEPES/DMSO 5%) was 404 nm and the “λex MPA adduct” value ([2]; di-MPA adduct in HEPES/DMSO 5%) was 347 nm. It also gave a λem ([2]; fluorogen in HEPES/DMSO 5%) of 404 nm and a λex ([2]; fluorogen in HEPES/DMSO 5%) of 347 nm.
